One molecule from paper PMC3640428 (Journal of the American Chemical Society, 2013) can be followed below.

This test concerns the target T1, T. thermophilus GluRS (glutamyl-tRNA synthetase) (Thermus thermophilus, UniProt P27000).
T1 sequence (P27000 1-468): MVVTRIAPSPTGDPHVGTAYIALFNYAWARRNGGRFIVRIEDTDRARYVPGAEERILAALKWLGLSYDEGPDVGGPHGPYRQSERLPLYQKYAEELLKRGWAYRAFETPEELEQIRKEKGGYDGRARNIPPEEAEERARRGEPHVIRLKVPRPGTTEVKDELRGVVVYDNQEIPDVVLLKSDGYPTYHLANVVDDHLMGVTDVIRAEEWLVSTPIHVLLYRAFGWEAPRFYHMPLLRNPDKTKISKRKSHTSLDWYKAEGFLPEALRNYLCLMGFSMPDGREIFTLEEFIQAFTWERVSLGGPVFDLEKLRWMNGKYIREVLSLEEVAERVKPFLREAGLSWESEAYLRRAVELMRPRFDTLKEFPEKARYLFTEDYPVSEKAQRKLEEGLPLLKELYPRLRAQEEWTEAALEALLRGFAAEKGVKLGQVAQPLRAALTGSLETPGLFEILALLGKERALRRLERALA
As to the kind of experiment: intrinsic tryptophan fluorescence titration. Type of test: binding.

Molecule `Nc1ncnc2c1ncn2[C@@H]1O[C@H](COP(=O)(O)OP(=O)(O)OP(=O)(O)O)[C@@H](O)[C@H]1O` [ATP] displayed a Kd of 50 ± 12 µM.
